In general, Km refers to the concentration of substrate that gives half-maximal velocity.

Where two headings read alike, the source gives them in different places.

The assay has as its system T1, TaME (Thermoplasma acidophilum NADP+-malic enzyme).
T1 construct: dimer (from structural model); Asn304 and Thr46* named at active site
The experiment in a line: NADPH formation, oxidative decarboxylation, Michaelis-Menten. It is filed as biochemical. As to conditions: NADP+ as cofactor, standard assay conditions in supplement section 1.3.1, read-out: Km(substrate). An excerpt: NADPH formation, oxidative decarboxylation, Michaelis-Menten on TaME (Thermoplasma acidophilum NADP+-malic enzyme)

For `O=C(O)C[C@H](C(=O)O)[C@@H](O)C(=O)O` [2b, Isocitrate], the Km (0.03-0.60 mM isocitrate) amounted to 23.7 ± 5.2 µM.

As to `O=C(O)C[C@H](O)C(=O)O` [1b, Malate], the Michaelis constant (Km) (0.05-1.0 mM malate) came to 879 ± 149 µM.
